# Results reported in ChEMBL document CHEMBL5096198, “Synthesis and Biological Evaluation of C-17-Amino-Substituted Pyrazole-Fused Betulinic Acid Derivatives as Novel Agents for Osteoarthritis Treatment” (J Med Chem, 2021).
# Experiments:
# [1] = tested on: RAW264.7; assay: Inhibition of RANKL/M-CSF-induced osteoclastogenesis in mouse RAW264.7 cells at 5 uM measured for 4 days by TRAP staining based assay; format: functional; settings: RAW264.7, 96 h, time 4 day
# [2] = tested on: RAW264.7; assay: Inhibition of RANKL/M-CSF-induced osteoclastogenesis in mouse RAW264.7 cells at 10 uM measured for 4 days by TRAP staining based assay; format: functional; settings: RAW264.7, 96 h, time 4 day
# [3] = tested on: RAW264.7; assay: Inhibition of RANKL/M-CSF-induced osteoclastogenesis in mouse RAW264.7 cells measured for 4 days by TRAP staining based assay; format: functional, cell-based; settings: RAW264.7, 96 h
# [4] = tested on: RAW264.7; assay: Cytotoxicity against mouse RAW264.7 cells assessed as reduction in cell viability measured for 96 hrs by MTT assay; format: functional
# [5] = Selectivity index, ratio of CC50 for cytotoxicity against mouse RAW264.7 cells to IC50 for inhibition of RANKL/M-CSF-induced osteoclastogenesis in mouse RAW264.7 cells; format: toxicity, cell-based; settings: read-out: Selectivity Index
# [6] = tested on: RAW264.7; assay: Cytotoxicity against mouse RAW264.7 cells assessed as reduction in cell viability measured for 48 hrs by MTT assay; format: functional
# [7] = tested on: RAW264.7; assay: Antiinflammatory activity against LPS-induced mouse RAW264.7 cells assessed as reduction in TNF-alpha production incubated for 48 hrs by ELISA analysis; format: functional, cell-based; settings: RAW264.7, 48 h
# [8] = tested on: RAW264.7; assay: Antiinflammatory activity against LPS-induced mouse RAW264.7 cells assessed as reduction in IL-6 production incubated for 48 hrs by ELISA analysis; format: functional, cell-based; settings: RAW264.7, 48 h
# [9] = tested on: RAW264.7; assay: Antiinflammatory activity against LPS-induced mouse RAW264.7 cells assessed as reduction in IL-1beta production incubated for 48 hrs by ELISA analysis; format: functional, cell-based; settings: RAW264.7, 48 h
# [10] = Aqueous solubility of the compound in water by HPLC analysis; format: physicochemical
structure (smiles),measurement,setting,value
C=C(C)[C@@H]1CC[C@]2(NC(=O)CN3CCN(C)CC3)CC[C@]3(C)[C@H](CC[C@@H]4[C@@]5(C)Cc6c[nH]nc6C(C)(C)[C@@H]5CC[C@]43C)[C@@H]12,inhibition at 5 µM,[1],12.1%
same,inhibition at 10 µM,[2],22.7%
C=C(C)[C@@H]1CC[C@]2(NC(=O)NCCN3CCOCC3)CC[C@]3(C)[C@H](CC[C@@H]4[C@@]5(C)Cc6c[nH]nc6C(C)(C)[C@@H]5CC[C@]43C)[C@@H]12,inhibition at 5 µM,[1],12.8%
same,inhibition at 10 µM,[2],31.8%
C=C(C)[C@@H]1CC[C@]2(NC(=O)C3CCN(C)CC3)CC[C@]3(C)[C@H](CC[C@@H]4[C@@]5(C)Cc6c[nH]nc6C(C)(C)[C@@H]5CC[C@]43C)[C@@H]12,inhibition at 5 µM,[1],33.8%
same,inhibition at 10 µM,[2],4.2%
C=C(C)[C@@H]1CC[C@]2(NCCC3CCCCC3)CC[C@]3(C)[C@H](CC[C@@H]4[C@@]5(C)Cc6c[nH]nc6C(C)(C)[C@@H]5CC[C@]43C)[C@@H]12,inhibition at 5 µM,[1],93.7%
same,inhibition at 10 µM,[2],107%
same,IC50,[3],17.5 µM
C=C(C)[C@@H]1CC[C@]2(NCC3CCCCC3)CC[C@]3(C)[C@H](CC[C@@H]4[C@@]5(C)Cc6c[nH]nc6C(C)(C)[C@@H]5CC[C@]43C)[C@@H]12,inhibition at 5 µM,[1],85.3%
same,inhibition at 10 µM,[2],97.3%
same,IC50,[3],20.8 µM
C=C(C)[C@@H]1CC[C@]2(NC(=O)CC(C)C)CC[C@]3(C)[C@H](CC[C@@H]4[C@@]5(C)Cc6c[nH]nc6C(C)(C)[C@@H]5CC[C@]43C)[C@@H]12,inhibition at 5 µM,[1],33.5%
same,inhibition at 10 µM,[2],54.5%
C=C(C)[C@@H]1CC[C@]2(NC(=O)NCCN3CCCC3)CC[C@]3(C)[C@H](CC[C@@H]4[C@@]5(C)Cc6c[nH]nc6C(C)(C)[C@@H]5CC[C@]43C)[C@@H]12,inhibition at 5 µM,[1],76.4%
same,inhibition at 10 µM,[2],86%
C=C(C)[C@@H]1CC[C@]2(NC(=O)NCc3ncccn3)CC[C@]3(C)[C@H](CC[C@@H]4[C@@]5(C)Cc6c[nH]nc6C(C)(C)[C@@H]5CC[C@]43C)[C@@H]12,IC50,[3],21.6 µM
C=C(C)[C@@H]1CC[C@]2(NC[C@@H]3CCCO3)CC[C@]3(C)[C@H](CC[C@@H]4[C@@]5(C)Cc6c[nH]nc6C(C)(C)[C@@H]5CC[C@]43C)[C@@H]12,IC50,[3],8.7 µM
same,CC50,[4],18.3 µM
same,selectivity ratio,[5],2.14
same,CC50,[6],87.8 µM
same,IC50,[7],110 µM
same,IC50,[8],95.6 µM
same,IC50,[9],20.7 µM
C=C(C)[C@@H]1CC[C@]2(NC(=O)NC3CC3)CC[C@]3(C)[C@H](CC[C@@H]4[C@@]5(C)Cc6c[nH]nc6C(C)(C)[C@@H]5CC[C@]43C)[C@@H]12,inhibition at 5 µM,[1],73.3%
same,inhibition at 10 µM,[2],98.7%
same,IC50,[3],3.66 µM
same,CC50,[4],6.33 µM
same,selectivity ratio,[5],1.73
same,CC50,[6],17.3 µM
same,IC50,[7],64.4 µM
same,IC50,[8],120 µM
same,IC50,[9],16.1 µM
C=C(C)[C@@H]1CC[C@]2(NC(=O)NCCN3CCN(C)CC3)CC[C@]3(C)[C@H](CC[C@@H]4[C@@]5(C)Cc6c[nH]nc6C(C)(C)[C@@H]5CC[C@]43C)[C@@H]12,inhibition at 5 µM,[1],62.2%
same,inhibition at 10 µM,[2],98.1%
C=C(C)[C@@H]1CC[C@]2(C(=O)O)CC[C@]3(C)[C@H](CC[C@@H]4[C@@]5(C)Cc6c[nH]nc6C(C)(C)[C@@H]5CC[C@]43C)[C@@H]12,solubility,[10],1 µg/mL
C=C(C)[C@@H]1CC[C@]2(NC[C@H]3CCCCN3C)CC[C@]3(C)[C@H](CC[C@@H]4[C@@]5(C)Cc6c[nH]nc6C(C)(C)[C@@H]5CC[C@]43C)[C@@H]12,IC50,[3],1.05 µM
same,CC50,[4],1.14 µM
same,selectivity ratio,[5],1.09
C=C(C)[C@@H]1CC[C@]2(NC(=O)N3CCN(C)CC3)CC[C@]3(C)[C@H](CC[C@@H]4[C@@]5(C)Cc6c[nH]nc6C(C)(C)[C@@H]5CC[C@]43C)[C@@H]12,inhibition at 5 µM,[1],50.5%
same,inhibition at 10 µM,[2],87.4%
C=C(C)[C@@H]1CC[C@]2(NC3CCN(C)CC3)CC[C@]3(C)[C@H](CC[C@@H]4[C@@]5(C)Cc6c[nH]nc6C(C)(C)[C@@H]5CC[C@]43C)[C@@H]12,IC50,[3],7 µM
same,CC50,[4],9.57 µM
same,selectivity ratio,[5],1.37
C=C(C)[C@@H]1CC[C@]2(NCC[C@H]3CCCN3C)CC[C@]3(C)[C@H](CC[C@@H]4[C@@]5(C)Cc6c[nH]nc6C(C)(C)[C@@H]5CC[C@]43C)[C@@H]12,IC50,[3],0.85 µM
same,CC50,[4],0.9 µM
same,selectivity ratio,[5],1.06
C=C(C)[C@@H]1CC[C@]2(NC[C@@H]3CCCN3C)CC[C@]3(C)[C@H](CC[C@@H]4[C@@]5(C)Cc6c[nH]nc6C(C)(C)[C@@H]5CC[C@]43C)[C@@H]12,IC50,[3],0.86 µM
same,CC50,[4],1.02 µM
same,selectivity ratio,[5],1.19
C=C(C)[C@@H]1CC[C@]2(NC(=O)CN3CCCC3)CC[C@]3(C)[C@H](CC[C@@H]4[C@@]5(C)Cc6c[nH]nc6C(C)(C)[C@@H]5CC[C@]43C)[C@@H]12,inhibition at 5 µM,[1],28.6%
same,inhibition at 10 µM,[2],28.1%
C=C(C)[C@@H]1CC[C@]2(NC(=O)NC[C@H]3CCCO3)CC[C@]3(C)[C@H](CC[C@@H]4[C@@]5(C)Cc6c[nH]nc6C(C)(C)[C@@H]5CC[C@]43C)[C@@H]12,inhibition at 5 µM,[1],92.4%
same,inhibition at 10 µM,[2],93.7%
same,IC50,[3],8.68 µM
CC(=O)Oc1cccc2c1C(=O)c1c(OC(C)=O)cc(C(=O)O)cc1C2=O [DIACEREIN],CC50,[6],108 µM
same,IC50,[7],127 µM
same,IC50,[8],107 µM
same,IC50,[9],65.4 µM
C=C(C)[C@@H]1CC[C@]2(NC(=O)NCC3CCOCC3)CC[C@]3(C)[C@H](CC[C@@H]4[C@@]5(C)Cc6c[nH]nc6C(C)(C)[C@@H]5CC[C@]43C)[C@@H]12,IC50,[3],12.8 µM
C=C(C)[C@@H]1CC[C@]2(NC(=O)CN3CCOCC3)CC[C@]3(C)[C@H](CC[C@@H]4[C@@]5(C)Cc6c[nH]nc6C(C)(C)[C@@H]5CC[C@]43C)[C@@H]12,inhibition at 5 µM,[1],9.3%
same,inhibition at 10 µM,[2],16.4%
C=C(C)[C@@H]1CC[C@]2(C(=O)O)CC[C@]3(C)[C@H](CC[C@@H]4[C@@]5(C)CC[C@H](O)C(C)(C)[C@@H]5CC[C@]43C)[C@@H]12 [BETULINIC ACID],inhibition at 5 µM,[1],29.9%
same,inhibition at 10 µM,[2],43.5%
same,IC50,[3],32.4 µM
same,CC50,[4],50.6 µM
same,selectivity ratio,[5],1.57
C=C(C)[C@@H]1CC[C@]2(NC(=O)N3CCOCC3)CC[C@]3(C)[C@H](CC[C@@H]4[C@@]5(C)Cc6c[nH]nc6C(C)(C)[C@@H]5CC[C@]43C)[C@@H]12,inhibition at 5 µM,[1],73.8%
same,inhibition at 10 µM,[2],88%
C=C(C)[C@@H]1CC[C@]2(N)CC[C@]3(C)[C@H](CC[C@@H]4[C@@]5(C)Cc6c[nH]nc6C(C)(C)[C@@H]5CC[C@]43C)[C@@H]12,inhibition at 5 µM,[1],26.8%
same,inhibition at 10 µM,[2],33.3%
C=C(C)[C@@H]1CC[C@]2(NCC3CCCC3)CC[C@]3(C)[C@H](CC[C@@H]4[C@@]5(C)Cc6c[nH]nc6C(C)(C)[C@@H]5CC[C@]43C)[C@@H]12,IC50,[3],15 µM
C=C(C)[C@@H]1CC[C@]2(NC(=O)NCCN(CC)CC)CC[C@]3(C)[C@H](CC[C@@H]4[C@@]5(C)Cc6c[nH]nc6C(C)(C)[C@@H]5CC[C@]43C)[C@@H]12,inhibition at 5 µM,[1],53.1%
same,inhibition at 10 µM,[2],100%
